These results are taken from US10183011B2, “Anti-depression compounds” (Board of Regents of the University of Texas System, priority 2009, dated 2019).

One assay concerns C. elegans. In words: MPP+-induced mobility deficits in C. elegans. Type of assay: in vivo. Conditions: for locomotion (distance traveled by the head in 10 seconds divided by body length): 10 μM with MPP+, VEH 16.2±0.49, MPP+ alone 7.2±0.68; for mobility protected, relative to normal: 10 μM, 5 mM MPP+ for 32 hours. The procedure: FIG. 32. Protective efficacy of P7C3 and P7C3A20 for MPP^+-induced mobility deficits in C. elegans. The top panels show worms with the head identified by a green dot. […] Tracking is visualized as starting with blue color and progressing to white by the completion of 10 seconds. The green dot was used to determine locomotion, defined as the distance traveled by the head of the worm in 10 seconds divided by body length. Scale bars represent 70 μM. […] When worms were treated with MPP^+, locomotion was reduced more than 50% (7.2±0.68; n=31, p<0.0001). […] P7C3A20 protected mobility to almost 80% of normal (12.8±0.81; n=34, *p<0.01), and 10 μM P7C3 protected almost 60% (m.i. of 9.6±0.72; n=28, *p<0.05). […] (7.7±1.0; n=30). Experiments were performed in triplicate and data are expressed as mean±SEM.
As a behavioral measure of toxicity, worm mobility was assessed 32 hours after MPP^+-exposure. To quantify worm locomotion, video representations were recorded for 10 seconds at 4× magnification using a Nikon Eclipse 80i microscope. Each video segment consisted of 160 frames, and the head of each worm (10-20 worms per group, repeated in triplicate) was manually tracked in each frame using Imera software. The body length of each worm was also measured by Imera software. The ratio of distance traveled to body length was used to determine the movement index, defined as locomotion, as previously established (Wang J., et al. (2009) An ALS-linked mutant SOD1 produces a locomotor defect associated with aggregation and synaptic dysfunction when expressed in neurons of Caenorhabditis elegans. PLoS Genetics e10003350). […] Co-incubation of MPP^+-exposed worms with 10 μM P7C3A20 conferred 80% preservation of locomotion, while 10 μM P7C3 protected to about 60% of normal levels.
A video-based assay was used to assess the swim speed, distance traveled and length of worms. After exposure to MPP^+ for 32 hrs, worms were washed, resuspended in M9 buffer (500 ul) and transferred to microscope slides. A 10 second movie was recorded at 4× magnification using a Nikon Eclipse 80i microscope. Each movie consisted of 160 frames and the distance traveled by the head of each worm was manually tracked in each frame using Imera software. This software was also used to measure the length of the worm body. The ratio of movement distance to body length was used as a movement index, and defined as locomotion per standard protocols.

A further assay relates to SNc dopaminergic neurons. Nature of the assay: MPTP-toxicity to SNc dopaminergic neurons, treatment started 24 hours after the last MPTP dose. Type of assay: in vivo, mouse (C57Bl/6). The following applies: for dopaminergic axons in the striatum (TH staining): 20 mg/kg/day. The procedure:
FIG. 29A and FIG. 29B. Neuroprotective efficacy of P7C3 and P7C3A20 from MPTP-toxicity to SNc dopaminergic neurons. FIG. 29A—Test compounds were evaluated by dose response assay for their ability to block MPTP-neurotoxicity in the SNc. […] VEH group contained 30 animals: 15 animals that received the P7C3A20/P7C3 vehicle, and 15 animals that received Dimebon vehicle (saline). […] Representative immunohistochemical pictures of TH-staining in the SNc are shown below the graph. Dosing is expressed as total mg/day, and was administered intraperitoneally in divided doses twice daily. Data are expressed as mean±SEM. […] P7C3A20 does so with greater effect, and Dimebon offers no protection. Striatal sections were obtained from the same mice used in FIG. 2, and compound treatment groups are from mice that received a dose of 20 mg/kg/d.
We compared the protective efficacy of our agents in the Tatton and Kish model of MPTP administration, which induces prolonged apoptotic death of SNc dopaminergic neurons lasting about 3 weeks after a short course of daily MPTP administration. Mice were treated daily for 5 days with 30 mg/kg/day free base MPTP. On the sixth day, 24 hours after receiving the fifth and final dose of MPTP, daily treatment with P7C3, P7C3A20, Dimebon or vehicle was initiated. […] Dose-response studies were conducted in which mice received twice daily doses of each compound (or vehicle) for the ensuing 21 days (FIG. 29A). […] At the end of the 21 day treatment period, mice were sacrificed by transcardial perfusion with 4% paraformaldehyde, and fixed brains were sectioned through the striatum and SNc at 30 μM intervals. Every fourth section (spaced 120 μM apart) was stained with antibodies specific to tyrosine hydroxylase (TH) (Abcam, rabbit anti-TH, 1:2500). The TH enzyme catalyzes the conversion of the amino acid L-tyrosine to L-3,4-dihydroxyphenylalanine (L-DOPA), which serves as the precursor for dopamine. TH staining thus provides a means to immunohistochemically identify dopaminergic neurons. By counting the number of TH+ cells in the SNc, we were able to assess the neuroprotective efficacy of the three chemicals following MPTP exposure. All microscopic analysis was performed by two investigators, blind to treatment group.
15 adult male C57Bl/6 mice were individually housed for one week and then injected daily for 5 days with 30 mg/kg/day (i.p.) free base MPTP (Sigma). On day 6, 24 hours after receiving the fifth and final dose of MPTP, daily treatment with P7C3, P7C3A20, Dimebon or vehicle was initiated. Mice were housed in disposable caging, and protective gear and precautions were implemented for handling MPTP in accordance with UT Southwestern Medical Center policy. Dose response studies were conducted in which mice received twice daily doses of each compound (or vehicle) by intraperitoneal injection for the following 21 days, after which mice were sacrificed by transcardial perfusion with 4% paraformaldehyde. Brains were dissected, fixed overnight in 4% paraformaldehyde, and cryoprotected in sucrose for freezing by standard procedures. Frozen brains were sectioned through the striatum and SNc at 30 uM intervals, and every fourth section (spaced 120 μM apart) was stained with antibodies directed against tyrosine hydroxylase (TH) (Abcam, rabbit anti-TH, 1:2500). Diaminobenzidine was used as a chromagen, and tissue was counter-stained with hematoxylin to aid in visualization of the neuroanatomy. Images were analyzed with a Nikon Eclipse 90i motorized research microscope with Plan Apo lenses coupled with Metamorph Image Acquisition software (Nikon). TH+ neurons were counted with Image J software (NIH) in every section by 2 blinded investigators and results were averaged and multiplied by the sectioning interval to determine the total number of TH+ neurons per SNc.

SMILES strings stand for the structures. “Also recorded” adds a separate entry of the source.

As for `Cc1ccc2c(c1)c1c(n2CCc2ccc(C)nc2)CCN(C)C1` [Dimebon, 2,3,4,5-Tetrahydro-2,8-dimethyl-5-(2-(6-methyl-3-pyridyl)ethyl)-1H-pyrido(4,3-b)indole, reference compound], in the assay on C. elegans, the “locomotion (distance traveled by the head in 10 seconds divided by body length)” value is 7.7±1.0 and the “mobility protected, relative to normal” value is “offered no protective efficacy; also recorded: did not offer any protection”. Besides, the “dopaminergic axons in the striatum (TH staining)” value (“dopaminergic axons” below) with SNc dopaminergic neurons was “offered no protection of dopaminergic axons in the striatum”. In addition, the “protection from MPTP” value in the assay on SNc dopaminergic neurons (any dose) was “failed to confer any measurable degree of protection from MPTP at any dose”.
As for `COc1cccc(NCC(F)Cn2c3ccc(Br)cc3c3cc(Br)ccc32)c1` (centres unmarked) [Example P7C3A20, N-(3-(3,6-dibromo-9H-carbazol-9-yl)-2-fluoropropyl)-3-methoxyaniline], in the assay on C. elegans, the “locomotion (distance traveled by the head in 10 seconds divided by body length)” value stood at 12.8±0.81 and the “mobility protected, relative to normal” value is reported as 80%. The “onset of efficacy, over VEH” value with SNc dopaminergic neurons (1 mg/kg/day for 21 days) stood at 30%. For the same compound, the “dopaminergic axons” value in the assay with SNc dopaminergic neurons was “almost completely blocked depletion of dopaminergic axons in the striatum”. The “number of dopaminergic neurons in the SNc relative to normal mice not exposed to MPTP” value with SNc dopaminergic neurons (20 mg/kg/day for 21 days) is on record as “about 85%”.
With `OC(CNc1ccccc1)Cn1c2ccc(Br)cc2c2cc(Br)ccc21` (centres unmarked) [Example P7C3], the “locomotion (distance traveled by the head in 10 seconds divided by body length)” value in the assay on C. elegans was 9.6±0.72. Further, in the assay with SNc dopaminergic neurons (5 mg/kg/day for 21 days), the “enhanced survival of TH+ SNc neurons over VEH” value was “about 40%”. Moreover, the “dopaminergic axons” value in the assay with SNc dopaminergic neurons is given as “qualitatively notable protection”. In addition, the “protection relative to vehicle” value in the assay on SNc dopaminergic neurons (20 mg/kg/day for 21 days) is listed as around 60%.
In the case of `OC(CNc1cccc2ccccc12)Cn1c2ccc(Cl)cc2c2cc(Cl)ccc21` (centres unmarked) [Example P7C3-S184], the “activity in the MPTP protection assay” value with SNc dopaminergic neurons (new analogs, 10 mice for each compound) was “inactive in both in vivo assays”.
